Reference: US20090181972A1, “Novel Inhibitors of Cysteine Proteases, the Pharmaceutical Compositions Thereof and their Therapeutic Applications” (priority 2005, published 2009)

Assays:
SENP1 = biological target: T1, SENP1 (Homo sapiens, UniProt Q9P0U3); test: SENP1 activity assay; format: biochemical; conditions: MBP-SENP1 1.8 nM, 200 nM SUMO-AMC; pre-incubated 30 minutes at 25° C., 60 minutes at 37° C.; sigmoidal fit
T1 construct: made in house; host or cells: E. coli BL21
T1 sequence (Q9P0U3 1-644): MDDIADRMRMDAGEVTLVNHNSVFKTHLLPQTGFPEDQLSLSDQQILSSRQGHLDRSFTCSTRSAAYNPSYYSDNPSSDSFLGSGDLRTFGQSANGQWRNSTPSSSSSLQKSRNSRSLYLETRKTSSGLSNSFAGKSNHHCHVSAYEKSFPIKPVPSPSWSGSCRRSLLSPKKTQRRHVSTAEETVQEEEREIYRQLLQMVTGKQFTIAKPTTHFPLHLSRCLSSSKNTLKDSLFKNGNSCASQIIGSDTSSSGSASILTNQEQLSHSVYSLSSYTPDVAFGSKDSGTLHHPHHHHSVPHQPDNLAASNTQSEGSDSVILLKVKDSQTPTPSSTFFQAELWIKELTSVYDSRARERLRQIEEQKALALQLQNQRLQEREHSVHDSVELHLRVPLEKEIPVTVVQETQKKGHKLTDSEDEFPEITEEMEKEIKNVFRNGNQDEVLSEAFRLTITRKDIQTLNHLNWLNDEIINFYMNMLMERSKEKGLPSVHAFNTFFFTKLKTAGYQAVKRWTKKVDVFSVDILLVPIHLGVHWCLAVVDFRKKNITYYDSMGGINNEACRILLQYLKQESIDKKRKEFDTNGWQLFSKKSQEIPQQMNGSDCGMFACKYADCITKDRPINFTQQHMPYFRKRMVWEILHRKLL
Method: The cDNA encoding SENP1 was obtained by PCR amplification from placenta mRNA. SENP1 cDNA was subcloned by PCR into a bacterial expression vector (pMAL-C2X; New England BioLabs, Inc). The sequence was ascertained by sequencing of the entire open reading frame. pMAL-C2-SENP1 was transformed into BL21 cells and grown in LB-ampicillin medium supplemented with glucose (2 g.l^−1). Fusion protein expression was induced by IPTG (0.5 mM). Bacterial cell lysates were harvested and lyzed in lysis buffer (Tris HCl 20 mM pH 7.4; 1 mM EDTA; 200 mM NaCl; 0.5% Triton X-100; 10 % glycerol; Protease Inhibitor Cocktail) followed by sonication. Proteins were affinity purified on amylose affinity resin (New England BioLabs, Inc). Bound materials were extensively washed in wash buffer (20 mM Tris HCl pH 7.4; 200 mM NaCl; 1 mM EDTA; 0.5% Triton X-100; 10% glycerol) and eluted from the resin in 10 mM maltose-containing wash buffer. Proteins were dialyzed in dialysis buffer (Tris HCl pH 7.6 20 mM; NaCl 200 mM; DTT 1 mM; EDTA 1 mM; 10% Glycerol). Proteins purifications were analyzed on 4-12% NuPAGE (Invitrogen).
(§1) MBP-SENP1 was diluted in SENP1 buffer (50 mM Tris HCl; 0.5 mM EDTA; 5 mM DTT; 0.01 % Triton X-100; Bovine Serum Albumin 0.05 mg.ml^−1 pH 7.6). Compounds stocks (100 mM) were stored at −20° C. in DMSO. Compounds were tested at the following final concentrations: 100 μM; 33.3 μM; 11.1 μM; 3.7 μM; 1.23 μM; 412 nM; 137 nM; 45.7 nM; 15.2 nM; 5 nM.
(§2) Reactions were performed as duplicates in Black LJL 96 well plates (HE microplates; Molecular Devices; 20 μl final reaction volume). The substrate concentration for SENP1 was 200 nM SUMO-AMC (Chem. Biol., 2003, 10, p. 837-846) (Boston Biochem). The concentration of the enzyme (SENP1) in specificity assays was 1.8 nM. The concentrations were determined in order to perform specificity assays under initial velocities at fixed substrate concentration. Compounds were pre-incubated with enzymes for 30 minutes at 25° C. Reactions were initiated by addition of substrate to the plates containing the enzymes (+/− compounds) diluted in assay buffer. Reactions were incubated for 60 minutes at 37° C. Reactions were stopped by adding acetic acid (100 mM final). Readings were performed on a Pherastar Fluorescent Reader (BMG). λ Emission 380 nm; λ Excitation=460 nm. Data (mean values +/− standard deviation) were analyzed as % of control (no compound) and plotted as percentage versus the Log of the compound concentration using GraphPad (Prism). Data were fitted to a sigmoidal model (variable slope).

Uch-L3 = biological target: T2, Uch-L3 (Homo sapiens, UniProt P15374); test: UCH-L3 activity assay; format: biochemical; conditions: 400 nM Ub-AMC, 13 pM enzyme; pre-incubated 30 minutes at 25° C., 60 minutes at 37° C.; sigmoidal fit
T2 sequence (P15374 1-230): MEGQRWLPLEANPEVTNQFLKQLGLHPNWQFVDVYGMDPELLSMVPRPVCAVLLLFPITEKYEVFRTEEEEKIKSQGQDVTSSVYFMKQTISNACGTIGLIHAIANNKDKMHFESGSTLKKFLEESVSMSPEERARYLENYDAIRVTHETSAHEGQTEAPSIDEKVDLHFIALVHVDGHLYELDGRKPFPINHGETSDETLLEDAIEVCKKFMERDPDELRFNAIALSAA
Method: as §1, with “Uch-L3” for “MBP-SENP1”, “USP” for “SENP1”, “0.01%” for “0.01 %”
as §2, with “Uch-L3” for “SENP1”, “400” for “200”, “Ub-AMC” for “SUMO-AMC (Chem. Biol., 2003, 10, p. 837-846)”, “(Uch-L3)” for “(SENP1)”, “13 pM.” for “1.8 nM.”, “δ” for “λ”

6-(7)-Chloro-1-methyl-2,3,4,10,10a-pentaaza-cyclopenta[b]fluoren-9-one [Example 3/A]
IC50 (SENP1): > 100000 nM | IC50 (Uch-L3): 323 nM

CC(C)c1nnc2nc3c(nn12)C(=O)c1ccccc1-3 [Example 1l/A, 1-lsopropyl-2,3,4,10,10a-pentaaza-cyclopenta[b]fluoren-9-one]
IC50 (Uch-L3): 800 nM

CCc1nnc2nc3c(nn12)C(=O)c1cc(OC)c(OC)cc1-3 [Example 5b/A, 1-Ethyl-6,7-dimethoxy-2,3,4,10,10a-pentaaza-cyclopenta[b]fluoren-9-one]
IC50 (SENP1): 35700 nM | IC50 (Uch-L3): 1800 nM

CCc1nnc2nc3c(nn12)-c1cc(OC)c(OC)cc1C3=O [Example 5b/B, 3-Ethyl-6,7-dimethoxy-1,2,3a,4,10-pentaaza-cyclopenta[b]fluoren-9-one]
IC50 (SENP1): 1280 nM | IC50 (Uch-L3): 131 nM
